Where “and” joins values, the source holds several entries; their conditions need not be identical. Equal entries are not always repeated. Where two headings read alike, the source gives them in different places.
What was measured:
[1] = biological target: T1, CYP3A4 (Homo sapiens, UniProt P08684); conditions: cited from earlier work
[2] = biological target: T1, CYP3A4; test: Cocktail DDI study: PK of midazolam and 1-OH midazolam with/without nivasorexant; conditions: for t max: median (range); for AUC(0-t) / half-life: both, human, plasma, oral; for half-life: t ½; for t max median difference B–A / t max median difference D–A: median difference (90% CI); for t ½ ratio Trt B/Trt A / t ½ ratio Trt D/Trt A / AUC0–24 ratio Trt B/Trt A / C max ratio Trt B/Trt A / AUC0–24 ratio Trt D/Trt A / C max ratio Trt D/Trt A: ratio of geometric means (90% CI); for AUC0–24 ratio Trt B/Trt A / C max ratio Trt B/Trt A: initial nivasorexant dose vs cocktail alone; for AUC0–24 ratio Trt D/Trt A / C max ratio Trt D/Trt A: nivasorexant steady state vs cocktail alone
[3] = system: healthy subjects; test: Safety and tolerability in the clinical study; conditions: Day 1 to Day 15, healthy subjects
[4] = system: CYP2C9; conditions: for t max: median (range); for t max median difference B–A / t max median difference D–A: median difference (90% CI); for t ½ ratio Trt B/Trt A / t ½ ratio Trt D/Trt A / AUC0–24 ratio Trt B/Trt A / C max ratio Trt B/Trt A / AUC0–24 ratio Trt D/Trt A / C max ratio Trt D/Trt A: ratio of geometric means (90% CI); for AUC0–24 ratio Trt B/Trt A / C max ratio Trt B/Trt A: initial nivasorexant dose vs cocktail alone; for AUC0–24 ratio Trt D/Trt A / C max ratio Trt D/Trt A: nivasorexant steady state vs cocktail alone; for half-life: t ½
[5] = biological target: CYP2C9 (Homo sapiens, UniProt P11712); conditions: with flurbiprofen, tolbutamide, and warfarin; cited from earlier work
[6] = biological target: T2, CYP2C19 (Homo sapiens, UniProt P33261); conditions: for t max: median (range); for t max median difference B–A / t max median difference D–A: median difference (90% CI); for AUC0–24 ratio Trt B/Trt A / C max ratio Trt B/Trt A: initial nivasorexant dose vs cocktail alone; for C max / AUC0–24 / t ½: geometric mean (95% CI)
[7] = biological target: T2, CYP2C19; test: clinical; conditions: both, in vivo; for AUC(0-t) / half-life: geometric mean (95% CI); for half-life: t ½
[8] = system: CYP2C19; conditions: 25 mg b.i.d. for 6 days; cited from earlier work
[9] = Trt B, Day 8, cocktail + initial 100 mg nivasorexant, geometric mean (95% CI)
[10] = Trt A, Day 1, cocktail alone, geometric mean (95% CI)
[11] = Trt D, Day 15, cocktail + nivasorexant at steady state, geometric mean (95% CI)
[12] = Trt B, Day 8, cocktail + initial 100 mg nivasorexant
[13] = Trt D, Day 15, cocktail + nivasorexant at steady state
[14] = ratio of geometric means (90% CI)
[15] = ratio of geometric means (90% CI), nivasorexant steady state vs cocktail alone

T2 sequence (P33261 whole entry): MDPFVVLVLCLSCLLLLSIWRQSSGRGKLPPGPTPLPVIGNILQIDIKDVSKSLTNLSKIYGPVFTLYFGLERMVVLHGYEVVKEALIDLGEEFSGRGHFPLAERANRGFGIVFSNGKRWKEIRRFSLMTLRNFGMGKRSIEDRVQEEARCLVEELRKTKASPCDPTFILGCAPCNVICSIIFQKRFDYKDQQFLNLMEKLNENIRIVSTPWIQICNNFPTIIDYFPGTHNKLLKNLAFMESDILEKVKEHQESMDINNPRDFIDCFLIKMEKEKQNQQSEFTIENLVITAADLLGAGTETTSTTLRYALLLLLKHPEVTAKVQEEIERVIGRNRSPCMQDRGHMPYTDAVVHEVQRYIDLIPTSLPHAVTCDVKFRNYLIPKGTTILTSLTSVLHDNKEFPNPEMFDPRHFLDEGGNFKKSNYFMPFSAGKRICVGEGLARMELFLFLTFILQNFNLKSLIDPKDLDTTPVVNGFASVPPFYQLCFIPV
T1 sequence (P08684 whole entry): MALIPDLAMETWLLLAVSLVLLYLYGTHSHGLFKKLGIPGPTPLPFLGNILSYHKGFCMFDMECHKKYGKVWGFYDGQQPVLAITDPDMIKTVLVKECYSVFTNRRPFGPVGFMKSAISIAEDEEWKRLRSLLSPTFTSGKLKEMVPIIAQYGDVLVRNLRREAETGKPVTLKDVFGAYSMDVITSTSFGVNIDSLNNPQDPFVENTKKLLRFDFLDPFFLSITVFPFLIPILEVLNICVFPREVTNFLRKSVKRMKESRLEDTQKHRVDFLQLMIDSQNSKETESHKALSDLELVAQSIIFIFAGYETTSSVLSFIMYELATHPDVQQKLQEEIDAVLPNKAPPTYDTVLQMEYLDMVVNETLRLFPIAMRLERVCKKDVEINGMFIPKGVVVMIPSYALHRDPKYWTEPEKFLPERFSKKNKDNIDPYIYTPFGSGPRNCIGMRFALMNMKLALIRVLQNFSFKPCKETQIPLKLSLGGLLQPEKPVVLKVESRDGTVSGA
CYP2C9 (Homo sapiens, UniProt P11712), sequence (P11712 whole entry): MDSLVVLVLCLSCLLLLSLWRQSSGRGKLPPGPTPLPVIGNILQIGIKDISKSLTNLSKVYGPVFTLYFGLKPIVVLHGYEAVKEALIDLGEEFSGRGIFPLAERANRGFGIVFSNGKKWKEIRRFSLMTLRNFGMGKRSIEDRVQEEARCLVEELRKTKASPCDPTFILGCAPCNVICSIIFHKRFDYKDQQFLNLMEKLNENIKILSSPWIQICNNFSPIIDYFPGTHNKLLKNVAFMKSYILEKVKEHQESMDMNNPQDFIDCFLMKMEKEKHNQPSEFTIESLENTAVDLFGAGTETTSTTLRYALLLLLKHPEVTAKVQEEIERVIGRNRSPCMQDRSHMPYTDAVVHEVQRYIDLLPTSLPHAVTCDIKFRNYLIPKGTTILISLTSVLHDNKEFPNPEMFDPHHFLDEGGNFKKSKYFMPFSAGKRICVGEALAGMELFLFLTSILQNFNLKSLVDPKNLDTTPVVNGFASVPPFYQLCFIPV

## Cc1ncc2n1-c1ccc(Cl)cc1C(c1ccccc1F)=NC2 [midazolam]
[1]; initial b.i.d. dosing with 200 mg nivasorexant
  increase in midazolam AUC: 1.8 fold
[1]; repeated b.i.d. dosing (over 10 days) with 200 mg nivasorexant
  increase in midazolam AUC: 4.5 fold
[2]; Trt A, Day 1, cocktail alone
  t max: 0.75 (0.50–3.00) h
[2]; [9]
  AUC0–24: 22.7 (19.5–26.5) ng*h/mL
[2]; AUC0–24, Trt A, Day 1, cocktail alone, geometric mean (95% CI)
  AUC(0-t): 14.6 ng·h/mL
[2]; AUC0–24, Trt D, Day 15, cocktail + nivasorexant at steady state, geometric mean (95% CI)
  AUC(0-t): 54.8 ng·h/mL
[2]; [10]
  half-life: 4.94 h
[2]; [11]
  half-life: 6.75 h
[2]
  t max median difference B–A: 0.00 (−0.13–0.13) h
  t max median difference D–A: 0.00 (−0.13–0.13) h
  t ½ ratio Trt B/Trt A: 1.67 (1.38–2.01)
  t ½ ratio Trt D/Trt A: 1.25 (1.07–1.46)
  AUC0–24 ratio Trt B/Trt A: 1.56 and 1.6
  C max ratio Trt B/Trt A: 1.34 (1.22–1.46)
  AUC0–24 ratio Trt D/Trt A: 3.71 and 3.7
  C max ratio Trt D/Trt A: 2.62 (2.31–2.97)
[3]
  safety and tolerability (in words): safe and well tolerated

## CC(C(=O)O)c1ccc(-c2ccc(O)cc2)c(F)c1 (stereo not shown) [4‐OH flurbiprofen, 4‐hydroxyflurbiprofen]
[4]; Trt A, Day 1, cocktail alone (flurbiprofen 50 mg), geometric mean (95% CI)
  C max: 316 (278–359) ng/mL
[4]; [10]
  AUC0–24: 2516 (2280–2778) ng*h/mL
  t ½: 7.85 (7.04–8.75) h
[4]; Trt A, Day 1, cocktail alone
  t max: 3.00 (1.50–6.00) h
[4]; [9]
  AUC0–24: 2366 (2138–2618) ng*h/mL
  C max: 289 (259–322) ng/mL
  t ½: 8.03 (7.28–8.87) h
[4]; [12]
  t max: 3.00 (1.50–6.02) h
[4]; [11]
  AUC0–24: 1924 (1763–2099) ng*h/mL
  t ½: 12.0 (10.0–14.3) h
[4]; [13]
  t max: 3.00 (1.50–6.00) h
[4]
  t max median difference B–A: 0.74 (−0.02–1.50) h
  t max median difference D–A: 0.50 (−0.04–1.00) h
  t ½ ratio Trt B/Trt A: 1.02 (0.97–1.09)
  t ½ ratio Trt D/Trt A: 1.54 (1.39–1.70)
  AUC0–24 ratio Trt B/Trt A: 0.94 (0.90–0.98)
  C max ratio Trt B/Trt A: 0.91 (0.87–0.96)
  AUC0–24 ratio Trt D/Trt A: 0.74 (0.70–0.79)
  C max ratio Trt D/Trt A: 0.53 (0.49–0.59)

## OC(Cn1cncn1)(Cn1cncn1)c1ccc(F)cc1F [fluconazole]
[5]
  increase in AUC ratio of CYP2C9 probe substrates: approximately two‐fold

## CC(C(=O)O)c1ccc(-c2ccccc2)c(F)c1 (stereo not shown) [flurbiprofen]
[4]; both, human, in vivo, 50 mg, C max, Trt A, Day 1, cocktail alone (flurbiprofen 50 mg), geometric mean (95% CI)
  Cmax: 6410 ng/mL
[4]; both, human, in vivo, t max, Trt A, Day 1, cocktail alone
  t max: 2 h
[4]; both, human, in vivo, t max, Trt D, Day 15, cocktail + nivasorexant at steady state
  t max: 2.5 h
[4]; both, human, in vivo, Trt A, Day 1, cocktail alone, geometric mean (95% CI)
  half-life: 5.73 h
[4]; both, human, in vivo, Trt D, Day 15, cocktail + nivasorexant at steady state, geometric mean (95% CI)
  half-life: 7.89 h
[4]
  t max median difference B–A: 0.75 (0.00–1.51) h
  t max median difference D–A: 0.50 (−0.13–1.16) h
  t ½ ratio Trt B/Trt A: 1.11 (1.07–1.15)
  t ½ ratio Trt D/Trt A: 1.39 (1.31–1.47)
  AUC0–24 ratio Trt B/Trt A: 1.04
  C max ratio Trt B/Trt A: 0.97 (0.86–1.08)
  AUC0–24 ratio Trt D/Trt A: 1.47 and 1.5
  C max ratio Trt D/Trt A: 1.08 (0.97–1.20)
[3]
  safety and tolerability (in words): safe and well tolerated

## COc1ccc2[nH]c([S+]([O-])Cc3ncc(C)c(OC)c3C)nc2c1 (stereo not shown) [omeprazole]
[6]; Trt A, Day 1, cocktail alone
  t max: 3.00 (1.00–6.00) h
[6]
  t max median difference B–A: 0.5 h
  t max median difference D–A: 1.00 h
[6]; listed as Omeprazole
  t max median difference B–A: 0.50 (0.00–1.49) h
  t max median difference D–A: 1.00 (0.50–1.75) h
[6]; [14]
  t ½ ratio Trt B/Trt A: 1.46 (1.24–1.72)
  t ½ ratio Trt D/Trt A: 2.01 (1.69–2.40)
  AUC0–24 ratio Trt B/Trt A: 2.05 and 2.1
  C max ratio Trt B/Trt A: 1.60 (1.30–1.97)
[6]; [15]
  AUC0–24 ratio Trt D/Trt A: 6.84 and 6.8
  C max ratio Trt D/Trt A: 3.31 (2.55–4.28)
[7]; 20 mg
  Cmax: 162 ng/mL
[7]; AUC0–24, Trt A, Day 1, cocktail alone
  AUC(0-t): 372 ng·h/mL
[7]; AUC0–24, Trt D, Day 15, cocktail + nivasorexant at steady state
  AUC(0-t): 2670 ng·h/mL
[7]; Trt A, Day 1, cocktail alone
  half-life: 0.99 h
[7]; [13]
  half-life: 1.99 h
[3]
  safety and tolerability (in words): safe and well tolerated

## COc1ccc2nc([S+]([O-])Cc3ncc(CO)c(OC)c3C)[nH]c2c1 (stereo not shown) [5‐OH omeprazole]
[6]; Trt A, Day 1, cocktail alone (omeprazole 20 mg)
  C max: 129 (110–151) ng/mL
[6]; Trt A, Day 1, cocktail alone
  AUC0–24: 367 (332–406) ng*h/mL
  t ½: 1.34 (1.20–1.49) h
  t max: 3.00 (1.00–6.00) h
[6]; [12]
  AUC0–24: 338 (314–363) ng*h/mL
  C max: 97.0 (85.0–110.7) ng/mL
  t ½: 1.53 (1.30–1.80) h
  t max: 3.49 (1.50–6.02) h
[6]; [13]
  AUC0–24: 278 (253–305) ng*h/mL
  t ½: 2.03 (1.79–2.32) h
  t max: 4.00 (1.50–10.00) h
[6]
  t max median difference B–A: 0.50 (0.00–1.16) h
  t max median difference D–A: 1.25 (0.75–2.00) h
[6]; [14]
  t ½ ratio Trt B/Trt A: 1.14 (0.99–1.32)
  t ½ ratio Trt D/Trt A: 1.50 (1.36–1.66)
  AUC0–24 ratio Trt B/Trt A: 0.92 (0.85–1.00)
  C max ratio Trt B/Trt A: 0.75 (0.66–0.86)
[6]; [15]
  AUC0–24 ratio Trt D/Trt A: 0.74 (0.67–0.82)

## COCCCC/C(=N\OCCN)c1ccc(C(F)(F)F)cc1 [fluvoxamine]
[8]
  increase in omeprazole exposure: 5.6 fold

## OCc1ncc2n1-c1ccc(Cl)cc1C(c1ccccc1F)=NC2 [1‐OH midazolam, 1‐hydroxy (OH) midazolam]
[2]; [10]
  AUC0–24: 8.50 (7.23–10.00) ng*h/mL
  t ½: 2.27 (1.58–3.25) h
[2]; Trt A, Day 1, cocktail alone
  t max: 0.50 (0.50–3.00) h
[2]; [9]
  AUC0–24: 8.64 (7.37–10.13) ng*h/mL
  C max: 4.12 (3.53–4.82) ng/mL
  t ½: 2.94 (2.04–4.22) h
[2]; [12]
  t max: 0.75 (0.50–1.50) h
[2]; [11]
  AUC0–24: 9.88 (8.02–12.18) ng*h/mL
  t ½: 9.04 (6.82–11.97) h
[2]; [13]
  t max: 0.50 (0.50–1.50) h
[2]
  t max median difference B–A: 0.00 (0.000–0.13) h
  t max median difference D–A: 0.00 (−0.13–0.13) h
  t ½ ratio Trt B/Trt A: 1.29 [1.03–1.62]
  t ½ ratio Trt D/Trt A: 3.05 (2.03–4.58)
  AUC0–24 ratio Trt B/Trt A: 1.02 (0.96–1.08)
  C max ratio Trt B/Trt A: 1.02 (0.91–1.15)
  AUC0–24 ratio Trt D/Trt A: 1.15 (1.06–1.24)
  C max ratio Trt D/Trt A: 0.86 (0.75–0.98)
[2]; listed as 1‐OH Midazolam
  t ½ ratio Trt B/Trt A: 1.29 (1.03–1.62)

From PMC10557102 (Pharmacology Research & Perspectives, 2023)
